Data: patent publication US20140378408A1, “NUCLEOSIDE 5'-PHOSPHOROTHIOATE ANALOGUES AND USES THEREOF” (BAR-ILAN UNIVERSITY, an Israeli University, priority 2012, published 2014)
Like-named read-outs stand apart in the source and are kept apart here.

What was measured:
human NTPDase8 [1] = biological target: T1, human NTPDase8 (Homo sapiens, UniProt Q5MY95); test: Hydrolysis by human NTPDase8; type: in vitro ADME; conditions: for Hydrolysis by NTPDase8: 100 μM, 1 h, activity with 100 μM ATP = 100%
T1 construct: made in house; host or cells: COS-7 cells (transfected; protein extract)
T1 sequence (Q5MY95 1-495): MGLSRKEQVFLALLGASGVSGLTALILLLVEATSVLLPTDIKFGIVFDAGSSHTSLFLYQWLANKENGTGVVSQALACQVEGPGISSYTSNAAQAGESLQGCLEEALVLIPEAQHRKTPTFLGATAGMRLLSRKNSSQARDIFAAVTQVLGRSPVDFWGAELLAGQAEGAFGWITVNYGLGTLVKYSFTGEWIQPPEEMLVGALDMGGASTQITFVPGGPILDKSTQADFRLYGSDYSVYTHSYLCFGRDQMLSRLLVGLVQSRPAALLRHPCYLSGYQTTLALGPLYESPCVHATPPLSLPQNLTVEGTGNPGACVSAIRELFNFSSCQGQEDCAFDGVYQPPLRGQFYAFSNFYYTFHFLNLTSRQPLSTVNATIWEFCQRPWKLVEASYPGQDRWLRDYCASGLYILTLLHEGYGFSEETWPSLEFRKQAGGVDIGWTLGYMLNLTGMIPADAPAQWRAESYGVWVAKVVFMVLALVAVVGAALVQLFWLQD

human NTPDase3 = biological target: T2, human NTPDase3 (Homo sapiens, UniProt O75355); test: Inhibition of NTPDase3 activity; conditions: for inhibition of the hydrolysis of ATP by NTPDase3: analogue and ATP 100 μM; for effect on human NTPDase3 activity: Table 5, ATP and analogue 100 μM, 100% activity = ATP alone
T2 sequence (O75355 1-529): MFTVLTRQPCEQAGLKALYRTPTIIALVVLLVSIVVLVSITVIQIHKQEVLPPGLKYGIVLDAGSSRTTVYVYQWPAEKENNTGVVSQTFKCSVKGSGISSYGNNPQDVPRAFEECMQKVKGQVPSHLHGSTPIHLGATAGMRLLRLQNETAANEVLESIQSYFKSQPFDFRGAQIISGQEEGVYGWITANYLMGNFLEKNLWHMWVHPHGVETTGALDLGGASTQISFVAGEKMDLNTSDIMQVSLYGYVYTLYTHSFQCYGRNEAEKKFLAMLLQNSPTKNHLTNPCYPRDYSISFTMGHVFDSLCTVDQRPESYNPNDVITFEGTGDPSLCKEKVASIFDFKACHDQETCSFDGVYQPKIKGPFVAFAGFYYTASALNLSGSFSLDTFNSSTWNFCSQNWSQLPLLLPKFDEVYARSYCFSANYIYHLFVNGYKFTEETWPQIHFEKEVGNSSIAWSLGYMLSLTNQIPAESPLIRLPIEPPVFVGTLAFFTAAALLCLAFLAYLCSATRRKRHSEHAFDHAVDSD

human NTPDase8 [2] = biological target: T1, human NTPDase8; test: Inhibition of NTPDase8 activity; type: biochemical; conditions: for inhibition of the hydrolysis of ATP by NTPDase8: analogue and ATP 100 μM; for effect on human NTPDase8 activity: Table 5, ATP and analogue 100 μM, 100% activity = ATP alone
human NTPDase1 [3] = biological target: T3, human NTPDase1 (Homo sapiens, UniProt P49961); test: Inhibition of NTPDase1 activity; conditions: for inhibition of the hydrolysis of ATP by NTPDase1: analogue and ATP 100 μM; for effect on human NTPDase1 activity: Table 5, ATP and analogue 100 μM, 100% activity = ATP alone, read as inhibition
T3 sequence (P49961 1-510): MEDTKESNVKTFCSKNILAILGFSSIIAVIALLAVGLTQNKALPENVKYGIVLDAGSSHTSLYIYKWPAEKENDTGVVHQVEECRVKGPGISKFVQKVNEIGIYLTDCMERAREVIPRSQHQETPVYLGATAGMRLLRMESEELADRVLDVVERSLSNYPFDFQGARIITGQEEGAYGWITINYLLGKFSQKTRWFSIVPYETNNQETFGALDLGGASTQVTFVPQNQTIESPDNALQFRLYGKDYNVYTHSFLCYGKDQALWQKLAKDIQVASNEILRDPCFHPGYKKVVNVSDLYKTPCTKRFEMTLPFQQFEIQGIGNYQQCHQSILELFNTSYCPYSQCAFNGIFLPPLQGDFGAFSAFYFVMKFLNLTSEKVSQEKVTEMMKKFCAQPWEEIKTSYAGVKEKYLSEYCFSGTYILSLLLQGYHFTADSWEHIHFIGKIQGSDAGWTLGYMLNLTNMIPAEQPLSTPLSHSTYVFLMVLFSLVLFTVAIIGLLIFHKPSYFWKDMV

human NTPDase2 [4] = biological target: T4, human NTPDase2 (Homo sapiens, UniProt Q9Y5L3); test: Inhibition of NTPDase2 activity; type: biochemical; conditions: for inhibition of the hydrolysis of ATP by NTPDase2: analogue and ATP 100 μM; for effect on human NTPDase2 activity: Table 5, ATP and analogue 100 μM, 100% activity = ATP alone
T4 construct: made in house; host or cells: COS-7 cells (transfected; protein extract)
T4 sequence (Q9Y5L3 1-495): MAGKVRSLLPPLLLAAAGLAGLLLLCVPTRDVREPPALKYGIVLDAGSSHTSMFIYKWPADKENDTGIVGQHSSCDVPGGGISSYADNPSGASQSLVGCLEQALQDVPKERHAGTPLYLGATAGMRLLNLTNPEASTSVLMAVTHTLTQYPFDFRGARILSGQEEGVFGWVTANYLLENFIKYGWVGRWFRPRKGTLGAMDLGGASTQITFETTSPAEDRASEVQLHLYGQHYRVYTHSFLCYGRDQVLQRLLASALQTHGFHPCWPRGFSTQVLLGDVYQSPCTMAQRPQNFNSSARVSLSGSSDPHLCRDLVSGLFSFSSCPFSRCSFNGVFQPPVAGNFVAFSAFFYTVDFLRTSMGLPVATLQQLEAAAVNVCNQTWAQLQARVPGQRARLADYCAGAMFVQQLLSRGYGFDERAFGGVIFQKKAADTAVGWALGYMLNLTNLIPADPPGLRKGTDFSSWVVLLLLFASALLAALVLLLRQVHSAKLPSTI

human NTPDase1 [5] = biological target: T3, human NTPDase1; test: Hydrolysis by human NTPDase1; type: in vitro ADME; design: made in house; host or cells: COS-7 cells (transfected; protein extract); conditions: for Hydrolysis by NTPDase1: 100 μM, 1 h, activity with 100 μM ATP = 100%
human P2Y11-R = biological target: T5, human P2Y11-R (Homo sapiens, UniProt Q96G91); test: [Ca^2+]i response of 1321N1 astrocytoma cells expressing P2Y11-R GFP; type: cell-based
T5 construct: expressed in transfected cells; host or cells: 1321N1 astrocytoma cells
T5 sequence (Q96G91 1-374): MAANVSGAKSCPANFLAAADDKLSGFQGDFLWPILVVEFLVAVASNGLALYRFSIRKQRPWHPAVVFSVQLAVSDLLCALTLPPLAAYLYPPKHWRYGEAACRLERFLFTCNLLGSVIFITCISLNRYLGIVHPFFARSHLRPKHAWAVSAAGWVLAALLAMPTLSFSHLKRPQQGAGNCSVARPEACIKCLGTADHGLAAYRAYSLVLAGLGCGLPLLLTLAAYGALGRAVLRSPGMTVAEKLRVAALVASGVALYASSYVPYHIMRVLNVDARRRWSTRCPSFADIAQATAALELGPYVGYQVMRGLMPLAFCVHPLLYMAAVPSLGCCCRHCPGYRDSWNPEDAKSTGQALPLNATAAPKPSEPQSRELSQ

human NTPDase2 [6] = biological target: T4, human NTPDase2; test: Hydrolysis by human NTPDase2; type: in vitro ADME; conditions: for Hydrolysis by NTPDase2: 100 μM, 1 h, activity with 100 μM ATP = 100%

Nc1ncnc2c1ncn2[C@@H]1O[C@H](COP(=O)(O)OP(O)(O)=S)[C@@H](O)[C@H]1O [ADP-β-S, adenosine 5′-[β-thio]diphosphate, reference compound]
Relative hydrolysis by NTPDase8 (human NTPDase8 [1]): 14 ± 0.1 % ± SD of ADP or AP2A hydrolysis | inhibition of the hydrolysis of ATP by NTPDase3 (human NTPDase3): less than 50% | inhibition of the hydrolysis of ATP by NTPDase8 (human NTPDase8 [2]): less than 50% | inhibition of the hydrolysis of ATP by NTPDase1 (human NTPDase1 [3]): less than 50% | inhibition of the hydrolysis of ATP by NTPDase2 (human NTPDase2 [4]): less than 50%

Nc1ncnc2c1ncn2[C@@H]1O[C@H](COP(O)(=S)OP(=O)(O)CP(=O)(O)O)[C@@H](O)[C@H]1O (single isomer, unassigned; isomer b) [APPCP-α-S (isomer B), adenosine 5′-[Pα-thio]-β,γ-methylenetriphosphate]
Hydrolysis by NTPDase8 (human NTPDase8 [1]; listed as APPCP-α-S B): 5.3 ± 0.2% | Hydrolysis by NTPDase1 (human NTPDase1 [5]; listed as APPCP-α-S B): 5.4 ± 0.2% | effect on human NTPDase3 activity (human NTPDase3; listed as APPCP-α-S B): 18.7 ± 0.8% | inhibition of the hydrolysis of ATP by NTPDase3 (human NTPDase3): did not interfere | effect on human NTPDase8 activity (human NTPDase8 [2]; listed as APPCP-α-S B): 0.5 ± 0.01% | inhibition of the hydrolysis of ATP by NTPDase8 (human NTPDase8 [2]): did not interfere | effect on human NTPDase1 activity (human NTPDase1 [3]; listed as APPCP-α-S B): 0.5 ± 0.02% | inhibition of the hydrolysis of ATP by NTPDase1 (human NTPDase1 [3]): did not interfere | times more potent than ATP at the P2Y11 receptor (human P2Y11-R): 7 fold | Hydrolysis by NTPDase2 (human NTPDase2 [6]; listed as APPCP-α-S B): 5.5 ± 0.3% | effect on human NTPDase2 activity (human NTPDase2 [4]; listed as APPCP-α-S B): 9.9 ± 0.4% | inhibition of the hydrolysis of ATP by NTPDase2 (human NTPDase2 [4]): did not interfere

adenosine-5′-tetrathiobisphosphonate
Relative hydrolysis by NTPDase8 (human NTPDase8 [1]): 7 ± 1 % ± SD of ADP or AP2A hydrolysis | Relative hydrolysis by NTPDase1 (human NTPDase1 [5]): 1 ± 0.2 % ± SD of ADP or AP2A hydrolysis | inhibition of the hydrolysis of ATP by NTPDase8 (human NTPDase8 [2]): 49% | inhibition of the hydrolysis of ATP by NTPDase1 (human NTPDase1 [3]): 54% | Relative hydrolysis by NTPDase2 (human NTPDase2 [6]): 1 ± 0.2 % ± SD of ADP or AP2A hydrolysis | inhibition of the hydrolysis of ATP by NTPDase2 (human NTPDase2 [4]): 42%

Nc1ncnc2c1ncn2[C@@H]1O[C@H](COP(O)(=S)OP(=O)(O)C(Cl)(Cl)P(=O)(O)O)[C@@H](O)[C@H]1O (single isomer, unassigned) [APPCCl2P-α-S, adenosine 5′-[Pα-thio]-β,γ-(dichloromethylene)triphosphate]
EC50 (human P2Y11-R): > 10 µM

Nc1ncnc2c1ncn2[C@@H]1O[C@H](COP(O)(=S)OP(=O)(O)C(Cl)(Cl)P(=O)(O)O)[C@@H](O)[C@H]1O (single isomer, unassigned; isomer a) [APPCCl2P-α-S (isomer A), adenosine 5′-[Pα-thio]-β,γ-(dichloromethylene)triphosphate]
Hydrolysis by NTPDase8 (human NTPDase8 [1]; listed as APPCCl2P-α-S A): 4.3 ± 0.1% | Hydrolysis by NTPDase1 (human NTPDase1 [5]; listed as APPCCl2P-α-S A): 5.3 ± 0.2% | effect on human NTPDase3 activity (human NTPDase3; listed as APPCCl2P-α-S A): 21.8 ± 1.0% | inhibition of the hydrolysis of ATP by NTPDase3 (human NTPDase3): did not interfere | effect on human NTPDase8 activity (human NTPDase8 [2]; listed as APPCCl2P-α-S A): 4.9 ± 0.2% | inhibition of the hydrolysis of ATP by NTPDase8 (human NTPDase8 [2]): did not interfere | effect on human NTPDase1 activity (human NTPDase1 [3]; listed as APPCCl2P-α-S A): 0.5 ± 0.01% | inhibition of the hydrolysis of ATP by NTPDase1 (human NTPDase1 [3]): did not interfere | agonism at the P2Y11-receptor (human P2Y11-R): not an agonist | Hydrolysis by NTPDase2 (human NTPDase2 [6]; listed as APPCCl2P-α-S A): 5.2 ± 0.1% | effect on human NTPDase2 activity (human NTPDase2 [4]; listed as APPCCl2P-α-S A): 11.2 ± 0.5% | inhibition of the hydrolysis of ATP by NTPDase2 (human NTPDase2 [4]): did not interfere

Nc1ncnc2c1ncn2[C@@H]1O[C@H](COP(=O)(O)CP(=O)(O)OP(O)(O)=S)[C@@H](O)[C@H]1O [APCPP-γ-S, adenosine 5′-[Pγ-thio]-α,β-methylenetriphosphate]
Hydrolysis by NTPDase8 (human NTPDase8 [1]): 5.2 ± 0.2% | Hydrolysis by NTPDase1 (human NTPDase1 [5]): 5.3 ± 0.2% | effect on human NTPDase3 activity (human NTPDase3): 26.8 ± 1.1% | effect on human NTPDase8 activity (human NTPDase8 [2]): 0.50 ± 0.02% | effect on human NTPDase1 activity (human NTPDase1 [3]): 18.7 ± 0.8% | EC50 (human P2Y11-R): > 10 µM | times more potent than ATP at the P2Y11 receptor (human P2Y11-R): 6.7 fold | EC50 (human P2Y11-R; agonist, read-out: EC50 at the P2Y11 receptor): 1 µM | Hydrolysis by NTPDase2 (human NTPDase2 [6]): 4.7 ± 0.2% | effect on human NTPDase2 activity (human NTPDase2 [4]): 15.4 ± 0.7%

di-adenosine-5′,5″-tetrathiobisphosphonate
Relative hydrolysis by NTPDase8 (human NTPDase8 [1]): 3.0 ± 0.1 % ± SD of ADP or AP2A hydrolysis | inhibition of the hydrolysis of ATP by NTPDase3 (human NTPDase3): 5-20% | inhibition of the hydrolysis of ATP by NTPDase8 (human NTPDase8 [2]): 5-20% | inhibition of the hydrolysis of ATP by NTPDase1 (human NTPDase1 [3]): ~60% | inhibition of the hydrolysis of ATP by NTPDase2 (human NTPDase2 [4]): 5-20%
